Where no end group is shown, it is not given here.
Tests used:
rat cortical neurons = assay: MTT reduction cell viability assay after Aβ exposure; assay type: cell-based; details: for decrease in cell viability: MTT reduction, vs control
Method: Aβ25-35 and Aβ1-42 were water-soluble peptides, however, while Aβ25-35, the functional domain of Aβ required for both neurotrophic and neurotoxic effects, was directly added to neuronal cultures after its solubilisation, Aβ1-42 was solved in water and maintained for 24 h at 37 °C before its addition to promote its aggregation. To test the effect of mGluR ligands on cell death induced by Aβ in neuronal cultures, these drugs were added 30 min before the addition of Aβ25-35 and maintained during Aβ exposure. Unless otherwise indicated, all chemicals were dissolved in water.
Cell viability was determined on 96-well plates using an in vitro toxicology assay kit based on a mitochondrial-dependent reaction that transforms 3-[4,5-dimetylthiazol-2-yl]-2,5-diphenyltetrazolium bromide (MTT) into formazan crystals. Briefly, at the end of treatments, cells were incubated in culture medium with MTT solution (5 mg/mL) at 37 °C for 3 h. After incubation, MTT solubilization solution (10% Triton X-100 plus 0.1 M HCl in isopropanol anhydrous) was added into the wells to dissolve formazan crystals and the absorbance of each well was measured at 570 nm and 690 nm, according to the manufacturer’s instructions.

Total mGluR = assay: L-[3H]glutamate radioligand binding in intact cortical neurons; parameters: species or system rat; details: for Total mGluR Bmax: L-[3H]Glutamate saturation binding
Method: Metabotropic glutamate receptors were determined using the radioligand L-[^3H]glutamate, as described previously. Radioligand binding assays using intact cells were performed in 24-well plates. Briefly, cells were washed with serum-free DMEM buffered with 20 mM HEPES pH 7.4 and incubated for 60 min at 37 °C in a final volume of 250 µL, in the presence of 100 μM AMPA, 100 μM NMDA, and 100 μM kainate, to block glutamate binding to these receptor types; 10 μM of the glutamate uptake inhibitor D,L-threo-β-hydroxyaspartic acid; and increasing concentrations of L-[^3H] glutamate (200 nM to 1.2 µM). Non-labeled L-Glutamate in a concentration of 10^5 times higher than the radioligand was used to determine non-specific binding. After incubation, cells were washed with 500 µL of ice-cold buffer and disrupted with 0.2% SDS. Well contents were then transferred to vials and a scintillation liquid mixture was added to measure radioactivity. At least two wells from each plate were reserved for protein concentration measurement.

A2AR = target: T1, A2AR (Rattus norvegicus, UniProt P30543); assay: [3H]ZM241385 radioligand binding in intact cortical neurons; details: for A2AR Bmax: [3H]ZM241385 saturation binding
T1 construct: endogenous in cells; host or cells: rat primary cortical neurons (intact)
T1 sequence (P30543 whole entry): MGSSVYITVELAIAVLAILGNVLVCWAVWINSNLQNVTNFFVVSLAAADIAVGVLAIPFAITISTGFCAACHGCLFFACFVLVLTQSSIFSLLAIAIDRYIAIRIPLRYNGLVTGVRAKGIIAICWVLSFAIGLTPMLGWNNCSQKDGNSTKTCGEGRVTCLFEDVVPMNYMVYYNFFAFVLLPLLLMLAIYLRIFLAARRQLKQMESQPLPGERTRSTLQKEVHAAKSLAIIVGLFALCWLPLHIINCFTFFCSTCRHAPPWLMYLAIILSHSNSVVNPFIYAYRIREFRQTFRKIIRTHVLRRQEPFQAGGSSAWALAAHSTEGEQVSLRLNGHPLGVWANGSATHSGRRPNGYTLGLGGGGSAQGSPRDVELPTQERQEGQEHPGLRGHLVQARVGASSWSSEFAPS
Method: Concerning adenosine receptor assessment by radioligand binding, [^3H]DPCPX and [^3H]ZM241385 were employed as selective A1R and A2AR radioligands, as described previously, to determine A1R and A2AR density, respectively. Briefly, primary cortical neurons growth in 24-well plates were washed with serum-free DMEM and pre-incubated with 2 U/mL ADA at 37 °C for 30 min to remove endogenous adenosine. After incubation, the radioligands [^3H]DPCPX (1–20 nM) or [^3H] ZM241385 (1–20 nM) were added in the absence or the presence of CPA in a concentration 10^4 times higher than the radioligand, to obtain non-specific binding to A1R, or 5 mM theophylline, to obtain non-specific binding to A2AR. A specific adenosine uptake inhibitor (1 µM dipyridamole) was added to the reaction mixture to block adenosine receptor ligands’ binding to adenosine transporters. After incubation at 25 °C for 2 h in a final volume of 250 µL, cells were washed with 500 µL of ice-cold buffer and disrupted with 0.2% SDS. Well contents were then transferred to vials and a scintillation liquid mixture was added to measure radioactivity. Two wells from each plate were reserved for protein concentration measurement.

PLCβ1 gene expression = PLCβ1 gene expression by real-time RT-PCR; assay type: cell-based, rat; details: 25 µM
Method: (§1) Total RNA was extracted using an ABI 6100 Nucleic Acid PrepStation according to the manufacturer’s protocol (Applied Biosystems Inc., Foster City, CA, USA). Total RNA from cells was isolated and stored at −80 °C. The quality of isolated RNA was estimated by the ratio A260/A280 and was in the range of 1.9–2.1. RNA integrity was evaluated by agarose gel electrophoresis according to MIQE guidelines using the “bleach gel” method. RNA concentrations were determined from the A260. One microgram of total RNA was reverse transcribed using Applied Biosystems High-Capacity cDNA Archive Kit.
(§2) To assess relative gene expression in neurons, quantitative real-time RT-PCR analysis was performed with an Applied Biosystems Prism 7500 Fast Sequence Detection System using TaqMan® universal PCR master mix according to the manufacturer’s specifications. […] Levels of RNA expression were determined using the 7500 Fast System SDS software version 1.3.1 (Applied Biosystems) according to the 2^−ΔΔCt method. […] The results from three independent repeat assays, performed in different plates each using different cDNA’s from the cultures analyzed, were averaged to produce a single mean quantity value for each mRNA.

[1] = tested on: A2BR (ADORA2B) gene expression; assay: A2BR gene expression by real-time PCR; assay type: cell-based, rat; details: 25 µM, 24 or 48 h
Method: as §1, §2

CREM gene expression = CREM gene expression by real-time PCR; assay type: cell-based, rat; details: 25 µM, 24 or 48 h
Method: as §1, §2

[2] = neurons exposed to 25 µM for 24 h
[3] = neurons exposed to 25 µM for 48 h

GSNKGAIIGLM [Aβ25-35] was tested, and the “decrease in cell viability” value (rat cortical neurons; 25 µM, 24 h) was roughly 40%, the cell viability (rat cortical neurons; 25 µM, 48 h, MTT) was “decrease in cell viability” and the “decrease in cell viability” value (rat cortical neurons; 50 µM, 24 h) was roughly 40%. The “cell viability, concentration dependence” value (rat cortical neurons; 1, 10, 25 and 50 µM, 24 h, MTT) was “concentration-dependent decrease in cell viability”, the “mGluR affinity (1/KD), % of the control value” (Total mGluR; 25 µM, 24 or 48 h) was roughly 50% and the “Total mGluR density (Bmax) increase over control value” (Total mGluR; 25 µM, 24 h) was 61%. For the same sequence, the “Total mGluR density (Bmax) increase over control value” (Total mGluR; 25 µM, 48 h) was 99%, the Kd (Total mGluR; [2]) was 1610 ± 423 nM and the “Total mGluR Bmax” value (Total mGluR; [2]) was 952 ± 9 pmol/mg prot. The Kd (Total mGluR; [3]) was 1520 ± 163 nM, the “Total mGluR Bmax” value (Total mGluR; [3]) was 1178 ± 93 pmol/mg prot and the “A2AR affinity (1/KD), change vs control” value (A2AR; 25 µM, 24 or 48 h) was “no significant variation”. For the same sequence, the “Total A2AR density (Bmax), change vs control” value (A2AR; 25 µM, 24 h) was “not altered”, the “Total A2AR density (Bmax) increase over control value” (A2AR; 25 µM, 48 h) was 80% and the Kd (A2AR; [2]) was 10.3 ± 1.22 nM. The “A2AR Bmax” value (A2AR; [2]) was 557 ± 56 fmol/mg prot, the Kd (A2AR; [3]) was 14 ± 4.69 nM and the “A2AR Bmax” value (A2AR; [3]) was 1178 ± 43 fmol/mg prot. The “PLCβ1 gene expression decrease over control value” (PLCβ1 gene expression; 24 h) was 28%, the “PLCβ1 gene expression decrease over control value” (PLCβ1 gene expression; 48 h) was 33% and the A2BR gene expression [1] was “significantly increased”. For the same sequence, the CREM gene expression (CREM gene expression) was “decrease”.

Reference: paper PMC8234864, “Early Effects of the Soluble Amyloid β25-35 Peptide in Rat Cortical Neurons: Modulation of Signal Transduction Mediated by Adenosine and Group I Metabotropic Glutamate Receptors” (International Journal of Molecular Sciences, 2021)
